Legend:
Test in all cases: selective drug sensitivity score (sDSS, relative to normal bone marrow) (sDSS (score)); higher = more potent and effective on the cell line relative to normal bone marrow cells
Settings in all cases: 72 h
PF-382 = system: PF-382
TMD5 = system: TMD5
COG-LL-319h = system: COG-LL-319h
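Note: ALL cell lines in 384-well plates, five doses spanning 10,000-fold, each plate scaled between vehicle and 100 µmol/L benzalkonium chloride controls, sDSS an adapted area-under-curve metric.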

Compound | selective drug sensitivity score (PF-382) | selective drug sensitivity score (TMD5) | selective drug sensitivity score (COG-LL-319h)
COc1cc2c(cc1-c1c(C)noc1C)ncc1[nH]c(=O)n([C@H](C)c3ccccn3)c12 [I-BET151] (top concentration 10000 nM) | 4.06 | -3.54 | 10.7
O=C1CCc2c(Oc3ccc4c(c3)[C@@H]3[C@H](O4)[C@H]3c3nc4cc(C(F)(F)F)ccc4[nH]3)ccnc2N1 [Lifirafenib (BGB-283)] (top concentration 10000 nM) | 3.18 | 15.9 | -0.52
NC(=O)N1CCC(CC(=O)N2CCC([C@H]3c4ncc(Br)cc4CCc4cc(Cl)cc(Br)c43)CC2)CC1 [Lonafarnib] (top concentration 100000 nM) | 9.44 | -3.36 | 7.04
NC1(c2ccc(-c3nc4ccn5c(=O)[nH]nc5c4cc3-c3ccccc3)cc2)CCC1 [MK-2206] (top concentration 1000 nM) | 3.26 | 7.36 | 3.56
O=C(Nc1cccc(NC(=O)c2cccc(O)c2O)c1)c1cccc(O)c1O [MST-312] (top concentration 10000 nM) | 6 | -3 | 12.8
CC(=O)O[C@]1(C(C)=O)CC[C@H]2[C@@H]3C=C(C)C4=CC(=O)CC[C@]4(C)[C@H]3CC[C@@]21C [Megestrol_acetate] (top concentration 10000 nM) | 0.32 | 7.82 | 0.42
CO[C@@H]1[C@H](N(C)C(=O)c2ccccc2)C[C@H]2O[C@]1(C)n1c3ccccc3c3c4c(c5c6ccccc6n2c5c31)C(=O)NC4 [Midostaurin] (top concentration 10000 nM) | 4.46 | 0.66 | 11.7
CCCCCCCCCCCCCCCCOP(=O)([O-])OCC[N+](C)(C)C [Miltefosine] (top concentration 100000 nM) | 1.16 | -1.64 | 2.76
Nc1ccccc1NC(=O)c1ccc(CNc2nccc(-c3cccnc3)n2)cc1 [Mocetinostat] (top concentration 10000 nM) | 6.04 | 1.44 | 14.7
CCNC(=O)C[C@@H]1N=C(c2ccc(Cl)cc2)c2cc(OC)ccc2-n2c(C)nnc21 [Molibresib] (top concentration 10000 nM) | 2.7 | 5.2 | 6.9
Nc1ncnc2c1c(-c1cccc(OCc3ccccc3)c1)cn2[C@H]1C[C@@H](CN2CCC2)C1 [NVP-AEW541] (top concentration 10000 nM) | -1.52 | -7.62 | 5.08
CN[C@@H](C)C(=O)N[C@H](C(=O)N1CCC[C@H]1c1nc(C(=O)c2ccc(F)cc2)cs1)C1CCCCC1 [NVP-LCL161] (top concentration 25000 nM) | -4.12 | -1.92 | -2.32
CC(=O)c1cc2c(o1)C(=O)c1ccccc1C2=O [Napabucasin] (top concentration 20000 nM) | -0.28 | -1.28 | -0.18
CC1(C)CCC(c2ccc(Cl)cc2)=C(CN2CCN(c3ccc(C(=O)NS(=O)(=O)c4ccc(N[C@H](CCN5CCOCC5)CSc5ccccc5)c(S(=O)(=O)C(F)(F)F)c4)cc3)CC2)C1 [Navitoclax] (top concentration 10000 nM) | 13.7 | 16.9 | 22.1
CC(=O)c1c(C)c2cnc(Nc3ccc(N4CCNCC4)cn3)nc2n(C2CCCC2)c1=O [Palbociclib] (top concentration 10000 nM) | 5.48 | -5.22 | 0.38
COc1ccc(COc2cc3oc(=O)c4cc(C(C)O)ccc4c3cc2OC)cc1 (stereo unspecified) [Palomid-529] (top concentration 10000 nM) | 1.06 | -0.24 | 17.2
FC(F)(F)c1ccc(CNc2ccc(Cc3c[nH]c4ncc(Cl)cc34)cn2)cn1 [Pexidartinib] (top concentration 10000 nM) | -1.22 | -2.22 | -2.22
